In publication PMC11726677, “Eradication of Therapy-Resistant Cancer Stem Cells by Novel Telmisartan Derivatives” (Journal of Medicinal Chemistry, 2024):
“And” between values parts separate entries of the source, which are not always exact repeats. Identical values can stand only once.

Assays:
K562-R cells = assay: Cellular imatinib accumulation assay (U(H)PLC-SIM-MS); assay type: cell-based, human; conditions: preincubated 1 h with 10 μM compound, then 1 μM imatinib 2 h
Description: After treatment, cells were washed, and the resulting cell pellets were lysed in 200 μL of ice-cold methanol. Lysates were incubated on a tube shaker (Thermomixer C, Eppendorf) for 20 min at 4 °C and 1400 rpm, followed by centrifugation (MicroStar 17R, VWR) at 16000g for 5 min at 4 °C. 180 μL of supernatants were separated from the sediment and dried in a rotary vacuum evaporator (Concentrator plus, Eppendorf) and stored at −80 °C until analysis.
Metabolites were separated using the following gradient: 1% B for 0.2 min, 1% B to 70% B within 0.6 min, 70% B to 90% B within 0.2 min, 90% B for 0.3 min. The UPLC system was coupled to a quadrupole orbitrap mass spectrometer (Exploris 480, Thermo Fischer Scientific) via a HESI electrospray source. […] The spray voltage was set to 3500 V and the ion transfer tube and vaporizer temperatures were set at 350 °C. Sheath gas was used at a flow rate of 60 (arbitrary units (a.u)) and auxiliary gas at a flow rate of 15 (a.u)).
Raw data processing was performed using TraceFinder General Quan 5.0 (Thermo Scientific, San Jose, CA, USA). The ICIS algorithm was used for peak identification and integration with the following parameters Peak detection strategy: Highest peak; Peak threshold type: Area; Threshold: 1; Smoothing: 3; S/N threshold: 3; Tailing Factor: 8. Peaks were manually adjusted when necessary. […]

Caco2 cells = assay: Caco2 permeability (bidirectional); assay type: in vitro ADME; conditions: pH 7.4, 10 μM; for Caco2 permeability Papp B–A: basolateral to apical
Description: The medium was changed regularly and on day 20 the permeability study was performed. The monolayers were prepared by rinsing the apical and basolateral surfaces with Hanks Balanced Salt Solution (HBSS) twice at the desired pH and by incubating for 40 min to stabilize the physiological parameters. […] The compounds were diluted with buffer to a concentration of 10 μM (final DMSO concentration ≤1%) and added to the apical or basolateral sides of the cell monolayer. Compound permeability was assessed in duplicates and molecules of known permeability characteristics were used as controls (antipyrine, atenolol, talinolol, and estrone 3-sulfate). To calculate Papp, compound appearance was measured using LC–MS/MS. The efflux ratio was determined for bidirectional assays.

PC3-DR cells (ABCB1+) = assay: SP analysis (DCV, flow cytometry) in PC3-DR cells; assay type: cell-based, human; conditions: 10 μM
From the text: (§1) In recent studies, we described the side population (SP) phenotype as a marker that defines a heterogeneous cellular compartment with stem cell-characteristics in various cancer cell lines derived from solid tumors, such as ovarian cancer, breast cancer, and lung cancer.[26],[27]

A549 cells (ABCC1+) = assay: SP analysis (DCV, flow cytometry) in A549 cells; assay type: cell-based, human; conditions: A549, 10 μM
From the text: as §1

STAT5 = assay: Jess Simple Western immunoassay of STAT5/pSTAT5 in IGROV-1 SP cells; assay type: cell-based, human; conditions: IGROV-1 SP, 10 μM, 72 h
Description: The impact of STAT5 activation on the mode of action was investigated in selected solid tumor cell lines as well.
Protein extracts were prepared as previously described.[44] Protein expression was determined using the capillary-based Jess Simple Western detection system (ProteinSimple, BioTechne) according to the manufacturer’s instructions at default settings. […] Horseradish peroxidase (HRP)-conjugated secondary antirabbit antibody, which was included in the Jess Detection Module kit, was used. Data analysis was conducted using Compass for Simple Western 4.0 software (ProteinSimple, BioTechne).

DU145-DR cells = assay: Chemosensitizing to docetaxel: metabolic activity of DU145-DR cells (MTT); assay type: cell-based, human; conditions: compound 10 μM + DTX 12.5 nM, 72 h
Description: The chemosensitizing efficacy was investigated in the ovarian and prostate cancer cell lines using the above-described metabolic activity assay. Paclitaxel (PTX) served as a reference (CTR) in A2780 V SP and IGROV-1 SP cells and docetaxel (DTX) in PC3-DR and D145-DR cells.
COS-7 (2 × 10^3 cells per well), IGROV-1 SP (2.5 × 10^3 cells per well), A2780 V SP (1.5 × 10^3 cells per well), PC3-DR (4 × 10^3 cells per well), and DU145-DR (3 × 10^3 cells per well) cells were seeded in 96-well plates in triplicates and after 24 h, the compounds were added at the respective concentrations. K562-R and K562 cells (2 × 10^4 cells per well), were treated with the compounds 2 h after seeding. […] A modified MTT colorimetric assay (EZ4U kit, Biomedica) was used to determine the metabolic activity of the tested cells, according to the manufacturer’s instructions. Absorbance was measured and the optical density of the respective FCS-containing medium and of the substrate was subtracted to exclude nonspecific staining. Metabolic activity in the absence of the compounds (CTR, DMSO) was set to 100% as reference.

[1] = Body weight / tolerability in the K562-R xenograft study; conditions: for Body Weight, individual animal / Body Weight, group mean: PO QD x 30 days (imatinib 50 mg/kg, 7c 10 mg/kg); for Body Weight, individual animal: animals No. 1–7; for Body Weight, group mean: n = 7

CCCc1nc2c(C)cc(-c3nc4ccccc4n3C)cc2n1Cc1ccc(-c2ccccc2C(=O)OC)cc1 [7b, Methyl 4′-((1,7′-dimethyl-2′-propyl-1H,3′H-[2,5′-bibenzo[d]imidazole]-3′-yl)methyl)-[1,1′-biphenyl]-2-carboxylate]
intracellular accumulation of imatinib (K562-R cells): notably restored
Caco2 permeability Papp A–B (Caco2 cells; apical to basolateral): 0.1 10^–6 cms^–1
Caco2 permeability Papp B–A (Caco2 cells): 0.2 10^–6 cms^–1
effect on SP phenotype (PC3-DR cells (ABCB1+)): eliminated the SP phenotype
effect on SP phenotype (A549 cells (ABCC1+)): eliminated the SP phenotype
phosphorylation status of STAT5 (STAT5): practically did not suppress pSTAT5
chemosensitizing to DTX (antimetabolic activity) (DU145-DR cells): produced the same effects as 5c and 6c

CCCc1nc2c(C)cc(-c3nc4ccccc4n3C)cc2n1Cc1ccc(-c2ccccc2C(N)=O)cc1 [7c, 4′-((1,7′-Dimethyl-2′-propyl-1H,3′H-[2,5′-bibenzo[d]imidazole]-3′-yl)methyl)-[1,1′-biphenyl]-2-carboxamide]
intracellular accumulation of imatinib (K562-R cells): notably restored
Caco2 permeability Papp B–A (Caco2 cells): 30.8 10^–6 cms^–1
effect on SP phenotype (PC3-DR cells (ABCB1+)): eliminated the SP phenotype
effect on SP phenotype (A549 cells (ABCC1+)): eliminated the SP phenotype
chemosensitizing to DTX (antimetabolic activity) (DU145-DR cells): most active chemosensitizer
tolerability ([1]; 7c 10 mg/kg, imatinib 50 mg/kg, PO QD × 30 days): well tolerated
Body Weight, individual animal ([1]; Day 1): 23 g and 25 g and 26 g and 21 g
Body Weight, group mean ([1]; Day 1): 24.1 g
Body Weight, individual animal ([1]; Day 5): 23 g and 24 g and 25 g and 26 g and 21 g
Body Weight, individual animal ([1]; Day 8): 23 g and 22 g and 26 g and 28 g and 24 g
Body Weight, group mean ([1]; Day 8): 24.0 g
Body Weight, individual animal ([1]; Day 12): 23 g and 22 g and 25 g and 27 g and 24 g
Body Weight, individual animal ([1]; Day 15): 23 g and 22 g and 25 g and 27 g and 21 g
Body Weight, group mean ([1]; Day 15): 23.4 g
Body Weight, individual animal ([1]; Day 19): 23 g and 25 g and 22 g and 28 g
Body Weight, individual animal ([1]; Day 22): 24 g and 25 g and 23 g and 27 g and 22 g
Body Weight, group mean ([1]; Day 22): 24.1 g
Body Weight, individual animal ([1]; Day 26): 25 g and 26 g and 22 g and 27 g and 23 g
Body Weight, individual animal ([1]; Day 29): 23 g and 26 g and 21 g and 28 g and 24 g and 22 g
Body Weight, individual animal ([1]; Day 33): 24 g and 27 g and 22 g and 26 g and 28 g and 23 g
Body Weight, group mean ([1]; Day 33): 25.1 g
